Assay results published in patent US20250269036A1, “METHODS FOR ENHANCEMENT OF ENGINEERED CELL THERAPIES IN CANCER TREATMENT” (PURDUE RESEARCH FOUNDATION, priority 2021, published 2025).
Entries after “also recorded” stand apart in the source; their conditions may differ.

Key:
[1] = system: M2-induced THP-1 macrophages; test: Secreted CCL18 and IL-1β in THP-1 macrophage supernatants by ELISA; type: cell-based, human; settings: ELISA, low concentration range (0.1-10 nM)
Procedure: FIGS. 6A-6D show graphical data representative of various marker levels measured from M2-induced THP-1 macrophages treated with different concentrations of drugs for 48 hours (FIGS. 6A and 6B) or for 2 hours, then displaced with fresh medium and cultured for the remaining 46 hours (FIGS. 6C and 6D). In both cases, cell supernatants were collected and secreted CCL18 protein and IL-1β was detected by ELISA.
CCL18 and IL-1β were quantified in induced THP-1 cell supernatants using a human DuoSet ELISA Development System (R&D Systems Europe, Abingdon, UK; #DY394-05) and an IL-1 beta Human ELISA Kit (Thermo Fisher Scientific, Waltham, MA; #BMS224-2) as described by manufactures. BALF samples were analyzed for mouse IFN-γ using ELISA MAX™ Deluxe (Biolegend, San Diego, CA; #430804).

[2] = system: healthy mice; test: Plasma cytokine levels in healthy mice after tail vein injection; type: in vivo; settings: healthy mice, tail vein, 10 nmol, 1 hour or 1.5 hours after treatment
Procedure: (FIGS. 20A-C) Measurement of plasma IL-6 (FIG. 20A), IFNα (FIG. 20B) and TNFα (FIG. 20C) (n=3). (FIGS. 20D-F). The effect of drug concentration on plasma levels of IL-6 (FIG. 20D), IFNα (FIG. 20E), and TNFα (FIG. 20F) was determined at 1.5h, 1h, or 1h after treatment, respectively (n=2) (FIG. 20G).
(FIGS. 36C and 36D). The effect of drug on plasma levels of IL-6 (FIG. 36C) and TNFα (FIG. 36D) was determined at 1 hour or 1.5 hours after treatment.

[3] = system: FRβ-expressing macrophages; test: In vivo folate imaging of organs with OTL38; parameters: species or system C57BL/6 mice
Procedure: (§1) To evaluate if anti-inflammatory lung macrophages in these mice can be specifically targeted with folate-linked drugs, 10 days after the instillation, 10 nmol (for in vivo imaging) or 100 nmol (for in vivo labeling) of a folate-linked, near infrared fluorescent dye (OTL38) with or without 200-fold excess of FA-glucosamine (a competitor of OTL38) was injected into the tail veins of BM-treated mice and the dye uptake in the major organs was evaluated.
Finally, for the in vivo folate imaging studies, major organs (heart, lung, spleen, liver, small intestine, large intestine, and kidney) were resected and imaged using an AMI live imager (Spectral Instruments Imaging, Tucson, AZ). For in vivo folate receptor labeling studies, lungs of the mice were harvested immediately following euthanasia, digested with a lung dissociation kit (Miltenyi Biotec, Bergisch Gladbach, DE; #130-098-427) as described by gentleMACS Octo Dissociator with Heathers (Miltenyi Biotec, Bergisch Gladbach, DE; #130-096-427) as described by manual and filtered through a 70 μm cell strainer (Miltenyi Biotec, Bergisch Gladbach, DE; #130-098-462). Cells collected in the filtrate were depleted of erythrocytes by […] lysis, washed 2x in cold PBS and labeled for 30 min on ice with antibodies to desired macrophage markers (FITC-CD11b, Biolegend, San Diego, CA; #101205; FE-F4/80, Biolegend, San Diego, CA; #123109). Labeled macrophages were then washed twice in PBS, stained with 7AAD (viability stain) for 15 min and analyzed by flow cytometry using BD Accuri C6 Software (BD Biosciences, San Jose, CA).
FIGS. 7C and 7D show FRβ IHC staining of human IPF lung tissue (FIG. 7C) and healthy human lung tissue (FIG. 7D). […] After 2 hours, mice were sacrificed prior to analysis. […] For in vivo folate receptor labeling studies, lungs of the mice were harvested immediately following euthanasia, digested and then labeled with antibodies to desired macrophages markers (FITC-CD11b, PE-F4/80) and 7AAD (live/dead staining) and analyzed by flow cytometry.

[4] = system: FRβ positive macrophages in the inflamed lung; test: In vivo folate receptor labeling of lung macrophages, flow cytometry; parameters: species or system C57BL/6 mice
Procedure: as §1
Finally, for the in vivo folate imaging studies, major organs (heart, lung, spleen, liver, small intestine, large intestine, and kidney) were resected and imaged using an AMI live imager (Spectral Instruments Imaging, Tucson, AZ). […] Labeled macrophages were then washed twice in PBS, stained with 7AAD (viability stain) for 15 min and analyzed by flow cytometry using BD Accuri C6 Software (BD Biosciences, San Jose, CA).
FIGS. 7C and 7D show FRβ IHC staining of human IPF lung tissue (FIG. 7C) and healthy human lung tissue (FIG. 7D). […] For in vivo folate receptor labeling studies, lungs of the mice were harvested immediately following euthanasia, digested and then labeled with antibodies to desired macrophages markers (FITC-CD11b, PE-F4/80) and 7AAD (live/dead staining) and analyzed by flow cytometry. […]

[5] = system: IL-4, IL-6 plus IL-13 stimulated THP-1 cells (M2-like macrophages); test: Reprogramming of M2-polarized THP-1 macrophages, marker mRNA by qPCR; type: cell-based, human; settings: 2 hours; for CCL18 relative expression / CD206 relative expression / IL-1β relative expression: different nM concentrations, qPCR
Procedure: THP-1 cells were initially selected as a model system because this human monocytic cell line is known to acquire an M2-like phenotype and produce significant quantities of anti-inflammatory cytokines upon stimulation with IL-4, IL-6 plus IL-13.
THP-1 cells were seeded into 96-well plates at a density of 60,000 cells/well. Cells were differentiated into unpolarized macrophages by 48 hours incubation with 200 nM PMA followed by 24 hours incubation in fresh RPMI medium. […] Cultures were maintained at 37° C. in a humidified 5% CO2 incubator.
Total RNA was isolated from 1×10^5-2×10^5 macrophages using a Quick-RNATM MicroPrep kit (Zymo Research, Irvine, CA) according to the manufacturer-recommended protocol. […] IL-6, CXCL10, IFNα, IFN-γ and CD86 were used as markers for an M1 phenotype, while CCL18, CD206, CD163 and Arg1 were employed as markers for the M2 phenotype. IL-1β, PDGFβ, MMP9 and TIMP 3 were measured as indicators of an anti-inflammatory phenotype. IRAK-4 was used as an indicator of TLR7 stimulation. To control for specificity of the amplification products, a melting curve analysis was performed. […] Each sample was analyzed independently in triplicate for each marker.
Primarily, human monocytic (THP-1) cells were induced to the M2-like phenotype using the methods and materials previously described. In particular, THP-1 cells were seeded into 96-well plates at a density of 60,000 cells/well. Cells were differentiated into unpolarized macrophages by 48h incubation with 200 nM PMA followed by 24 hours incubation in fresh RPMI medium. The resulting macrophages were polarized to an M2-like phenotype by incubation with 20 ng/ml IL-4, 20 ng/ml IL-13, and 5 ng/mL IL-6 for 48h. Cultures were maintained at 37° C. in a humidified 5% CO2 incubator.
In addition to the nonconjugated TLR7 agonist, conjugated compounds of the present disclosure were likewise evaluated. […] The cells were subsequently harvested for gene analysis by qPCR and the relative expression of CCL18 (FIG. 14A), CD206 (FIG. 14B), and IL-1β (FIG. 14C) analyzed.

Molecule	secretion of CCL18 protein [1]	CCL18 relative expression [5]	CD206 relative expression [5]	IL-1β relative expression [5]	further results
Nc1nc(C(F)(F)F)cc2c1[nH]c(=O)n2Cc1ccc(NCCN2CCCC(CO)C2)nc1 (stereo not shown) [Compound 3A]	downregulated				
CCOCc1nc2c(N)nc3ccccc3c2n1CC(C)(C)O [Compound A, reference compound]					systemic cytokine release (plasma IL-6, TNFα) [2]: stimulated systemic cytokine release
OTL38					lung accumulation with competitor ([3]; BM-treated mice, simultaneous 200-fold excess folate-glucosamine): nearly quantitative blockade of lung accumulation; OTL38 fluorescence in organs of healthy mice ([3]; tail vein, 10 nmol, 2 hours): only observed in the kidneys; accumulation in lungs of BM-treated mice ([3]; tail vein, 10 nmol, day 10 post BM, 2 hours): in the lungs of BM-treated but not healthy mice; also recorded: pronounced accumulation in the fibrotic lungs; folate-dye retention in macrophage-like cells with competitor ([4]; 100 nmol plus 200-fold excess folate-glucosamine): blocked essentially all folate-dye retention; macrophage-like cells showing folate-targeted dye retention ([4]; fibrotic mice, 100 nmol, tail vein): about 22%
Nc1nc2ncc(CNc3ccc(C(=O)NC(CCC(=O)N[C@@H](CSSCCOC(=O)OCC4CCCN(CCNc5ccc(Cn6c(=O)[nH]c7c(N)nc(C(F)(F)F)cc76)cn5)C4)C(=O)O)C(=O)O)cc3)nc2c(=O)[nH]1 (stereo partly shown) [Compound 3B]	downregulated	reduced	reduced	reduced	
Nc1nc2ncc(CNc3ccc(C(=O)N[C@@H](CCC(=O)NCCOCCOCCOCCOCC4CCCN(CCNc5ccc(Cn6c(=O)[nH]c7c(N)nc(C(F)(F)F)cc76)cn5)C4)C(=O)O)cc3)nc2c(=O)[nH]1 (stereo partly shown) [Compound 3D]	downregulated	reduced	reduced	reduced	effectiveness in reducing M2 markers relative to the other compounds ([5]; CCL18, CD206, IL-1β): most effective
